In US10131644B2, “Aryl sultam derivatives as RORc modulators” (Genentech, Inc., priority 2014, dated 2018):
Where a name gives a salt, the structure may show the parent alone.

What follows are compounds tested against T1, RORc (Homo sapiens, UniProt P51449) (assay: In vitro RORc ligand binding assay (25-[3H]hydroxycholesterol displacement)). Conditions: IC50, IC50 values for RORc; unit inferred.
T1 sequence (P51449 269-508 limits assumed): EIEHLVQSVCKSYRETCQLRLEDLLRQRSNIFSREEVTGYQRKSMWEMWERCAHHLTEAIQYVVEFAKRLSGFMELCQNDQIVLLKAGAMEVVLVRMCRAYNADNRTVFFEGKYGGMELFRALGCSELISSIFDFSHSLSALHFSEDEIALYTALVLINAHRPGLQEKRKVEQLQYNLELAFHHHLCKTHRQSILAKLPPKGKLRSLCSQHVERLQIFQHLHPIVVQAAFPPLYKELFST
Work on `CCOC(=O)CNC1(c2ccc(CN3[C@@H](C)CC[C@H](c4ccccc4)S3(=O)=O)c(F)c2)CCOCC1` [Compound 161, ethyl 2-[[4-[3-fluoro-4-[[(3S,6R)-3-methyl-1,1-dioxo-6-phenyl-thiazinan-2-yl]methyl]phenyl]tetrahydropyran-4-yl]amino]acetate] yielded an IC50 of 29.5 nM.
`CNC(=O)[C@]1(c2ccc(CN3[C@@H](C)CC[C@H](c4ccccc4)S3(=O)=O)c(F)c2)CC[C@H](n2cnnc2)CC1` [Compound 43, 1-[3-Fluoro-4-((3S,6R)-3-methyl-1,1-dioxo-6-phenyl[1,2]thiazinan-2-ylmethyl)-phenyl]-4-[1,2,4]triazol-4-yl-cyclohexanecarboxylic acid methylamide] was tested, and the IC50 was 96 nM.
Work on `C[C@H]1CC[C@H](c2ccccc2)S(=O)(=O)N1Cc1cc(F)c(C2(OCC(=O)NCCO)CCOCC2)cc1F` [Compound 156, 2-[4-[2,5-difluoro-4-[[(3S,6R)-3-methyl-1,1-dioxo-6-phenyl-thiazinan-2-yl]methyl]phenyl]tetrahydropyran-4-yl]oxy-N-(2-hydroxyethyl)acetamide] yielded an IC50 of 15.2 nM.
`CCOC(=O)CCC1(c2ccc(CN3[C@@H](C)CC[C@H](c4ccccc4)S3(=O)=O)c(F)c2)CCOCC1` [Compound 79, ethyl 3-[4-[3-fluoro-4-[[(3S,6R)-3-methyl-1,1-dioxo-6-phenyl-thiazinan-2-yl]methyl]phenyl]tetrahydropyran-4-yl]propanoate] was tested, and the IC50 was 4.9 nM.
Work on `C[C@H]1CC[C@H](c2ccccc2)S(=O)(=O)N1Cc1ccc(C2(C(=O)NCCC#N)CCOCC2)cc1F` [Compound 65, N-(2-cyanoethyl)-4-[3-fluoro-4-[[(3S,6R)-3-methyl-1,1-dioxo-6-phenyl-thiazinan-2-yl]methyl]phenyl]tetrahydropyran-4-carboxamide] yielded an IC50 of 52.9 nM.
`C[C@H]1CC[C@H](c2ccccc2)S(=O)(=O)N1Cc1ccc(C2(C(N)=O)CC2)cc1F` [Compound 196, 1-[3-fluoro-4-[[(3S,6R)-3-methyl-1,1-dioxo-6-phenyl-thiazinan-2-yl]methyl]phenyl]cyclopropanecarboxamide] showed an IC50 of 1080 nM.
Compound `C[C@H]1CC[C@@H](c2ccccc2)S(=O)(=O)N1Cc1ccc(C2(C(=O)NCCO)CCOCC2)cc1F` [Compound 47, 4-(3-fluoro-4-(((3S,6S)-3-methyl-1,1-dioxido-6-phenyl-1,2-thiazinan-2-yl)methyl)phenyl)-N-(2-hydroxyethyl)tetrahydro-2H-pyran-4-carboxamide] has an IC50 of 991 nM.
With `CC(=O)N1CC(OCC(O)CO)(c2cc(F)c(CN3[C@@H](C)CC[C@H](c4ccccc4)S3(=O)=O)cc2F)C1` (stereo partly drawn) [Compound 143, 1-[3-[2,5-difluoro-4-[[(3S,6R)-3-methyl-1,1-dioxo-6-phenyl-thiazinan-2-yl]methyl]phenyl]-3-(2,3-dihydroxypropoxy)azetidin-1-yl]ethanone] the IC50 was 29.8 nM.
With `CCOC(=O)COCC1(c2ccc(CN3[C@@H](C)CC[C@H](c4ccccc4)S3(=O)=O)c(F)c2)CCOCC1` [Compound 104, ethyl 2-[[4-[3-fluoro-4-[[(3S,6R)-3-methyl-1,1-dioxo-6-phenyl-thiazinan-2-yl]methyl]phenyl]tetrahydropyran-4-yl]methoxy]acetate] the IC50 was 23.8 nM.
With `C[C@H]1CC[C@H](c2ccccc2)S(=O)(=O)N1Cc1ccc(C2(C#N)CCC3(CC2)OCCO3)cc1F` [Example 21, 8-[3-Fluoro-4-((3S,6R)-3-methyl-1,1-dioxo-6-phenyl-[1,2]thiazinan-2-ylmethyl)-phenyl]-1,4-dioxa-spiro[4.5]decane-8-carbonitrile] the IC50 was 35 nM.
In the case of `C[C@H]1CC[C@H](c2ccccc2)S(=O)(=O)N1Cc1cc(F)c(C2(C(=O)O)CCOCC2)cc1F` [Compound 96, 4-[2,5-difluoro-4-[[(3S,6R)-3-methyl-1,1-dioxo-6-phenyl-thiazinan-2-yl]methyl]phenyl]tetrahydropyran-4-carboxylic acid], the IC50 is reported as 214 nM.
`C[C@H]1CC[C@H](c2ccccc2)S(=O)(=O)N1Cc1cc(F)c(C2(CO)CC2)cc1F` [Compound 126, [1-[2,5-difluoro-4-[[(3S,6R)-3-methyl-1,1-dioxo-6-phenyl-thiazinan-2-yl]methyl]phenyl]cyclopropyl]methanol] showed an IC50 of 49.9 nM.
Compound `C[C@H]1CC[C@H](c2ccccc2)S(=O)(=O)N1Cc1ccc([C@]2(C(=O)N(C)C)CC[C@H](n3cnnc3)CC2)cc1` [Example 16, 1-[4-((3S,6R)-3-Methyl-1,1-dioxo-6-phenyl-[1,2]thiazinan-2-ylmethyl)-phenyl]-4-[1,2,4]triazol-4-yl-cyclohexanecarboxylic acid dimethylamide] has an IC50 of 2400 nM.
In the case of `CNC(=O)COC1(c2cc(F)c(CN3[C@@H](C)CC[C@H](c4ccccc4)S3(=O)=O)cc2F)COC1` [Compound 177, 2-[3-[2,5-difluoro-4-[[(3S,6R)-3-methyl-1,1-dioxo-6-phenyl-thiazinan-2-yl]methyl]phenyl]oxetan-3-yl]oxy-N-methyl-acetamide], the IC50 is reported as 4.35 nM.
In the case of `COC(=O)C1(c2ccc(CN3[C@@H](C)CC[C@H](c4ccccc4)S3(=O)=O)c(F)c2)CCN(C(C)=O)CC1` [Compound 124, methyl 1-acetyl-4-[3-fluoro-4-[[(3S,6R)-3-methyl-1,1-dioxo-6-phenyl-thiazinan-2-yl]methyl]phenyl]piperidine-4-carboxylate], the IC50 is reported as 13 nM.
Work on `C[C@H]1CC[C@H](c2ccccc2)S(=O)(=O)N1Cc1ccc(C2(C(=O)NCCS(C)(=O)=O)CCOCC2)cc1F` [Compound 60, 4-[3-fluoro-4-[[(3S,6R)-3-methyl-1,1-dioxo-6-phenyl-thiazinan-2-yl]methyl]phenyl]-N-(2-methylsulfonylethyl)tetrahydropyran-4-carboxamide] yielded an IC50 of 111 nM.
`CC(=O)N1CCC(O)(c2ccc(CN3[C@@H](C)CC[C@H](c4ccccc4)S3(=O)=O)c(F)c2)CC1` [Example 9, 1-{4-[3-Fluoro-4-((3S,6R)-3-methyl-1,1-dioxo-6-phenyl-[1,2]thiazinan-2-ylmethyl)-phenyl]-4-hydroxy-piperidin-1-yl}-ethanone] gave an IC50 of 130 nM.
Compound `C[C@H]1CC[C@H](c2ccccc2)S(=O)(=O)N1Cc1ccc(C2(OC[C@@H](O)CO)CCOCC2)cc1F` [Compound 119, (2S)-3-[4-[3-fluoro-4-[[(3S,6R)-3-methyl-1,1-dioxo-6-phenyl-thiazinan-2-yl]methyl]phenyl]tetrahydropyran-4-yl]oxypropane-1,2-diol] has an IC50 of 27.4 nM.
For `C[C@H]1CC[C@H](c2ccccc2)S(=O)(=O)N1Cc1ccc(C2(OCCO)CCOCC2)cc1F` [Compound 99, 2-[4-[3-fluoro-4-[[(3S,6R)-3-methyl-1,1-dioxo-6-phenyl-thiazinan-2-yl]methyl]phenyl]tetrahydropyran-4-yl]oxyethanol], the IC50 was 66.4 nM.
In the case of `C[C@H]1CC[C@H](c2ccccc2)S(=O)(=O)N1Cc1ccc(C2(N)CC2)cc1F` [Compound 153, 1-[3-fluoro-4-[[(3S,6R)-3-methyl-1,1-dioxo-6-phenyl-thiazinan-2-yl]methyl]phenyl]cyclopropanamine; hydrochloride], the IC50 is reported as 572 nM.
Compound `C[C@H]1CC[C@H](c2ccccc2)S(=O)(=O)N1Cc1ccc(C2(C#N)CC2)cc1F` [Compound 109, 1-[3-fluoro-4-[[(3S,6R)-3-methyl-1,1-dioxo-6-phenyl-thiazinan-2-yl]methyl]phenyl]cyclopropanecarbonitrile] has an IC50 of 116 nM.
